# Assay results as given in patent US6414222B1, “Gene combinations for herbicide tolerance in corn” (Regents of the University of Minnesota, priority 1993, dated 2002).
# Assays:
# [1] = tested on: cell line 2167-9/2160-154 H-1; experiment: Callus herbicide tolerance, line H-1; format: cell-based, maize; settings: cell line H-1
# Method: (§1) Tolerant cell line 2167-9/2160-154 S-2 (“S-2”) was characterized to evaluate: (1) the magnitude of sethoxydim tolerance; (2) cross-tolerance of haloxyfop; and (3) the biochemical basis for the tolerance. Callus tissue from S-2 that had been maintained on 10 μM sethoxydim was transferred to media containing up to 100 μM sethoxydim. One-half gram of S-2 tissue was plated on a 7 cm filter paper as a lawn overlaying 50 ml agar-solidified culture medium containing 0, 0.5, 1.0, 2.0, 5.0, 10.0, 50.0 and 100 μM sethoxydim, and cultured for two weeks. Control cell line 2167-9/2160-154 was plated similarly on medium containing the same levels of sethoxydim. The control cell line growth after two weeks was inhibited 50% at 1 μM sethoxydim.
# (§2) The tolerant callus cultures were characterized to determine the magnitude of sethoxydim and haloxyfop tolerance. Callus tissue from these lines was evaluated in experiments as described above in the characterization of line 2167-9/2160-154 S-2.
# [2] = tested on: cell line 2167-9/2160-154 H-2; experiment: Callus herbicide tolerance, line H-2; format: cell-based, maize; settings: cell line H-2
# Method: as §1, §2
# [3] = tested on: ACCase of cell line 2167-9/2160-154 H-1; experiment: Herbicide inhibition of ACCase, line H-1; format: biochemical, maize; settings: cell line H-1
# Method: (§3) Maize chloroplasts, isolated as described above, were suspended in buffer C (0.1 M Tricine-KOH, pH 8.0; 0.3 M glycerol, and 1 mM DTT) and homogenized in a glass tissue homogenizer. The disrupted chloroplast fraction was centrifuged at 16,000 g for 15 minutes. The supernatant was desalted on a Sephadex G-25 column (1.5×5 cm equilibrated with 0.1 M Tricine-KOH, pH 8.0; and 0.3 M glycerol) and assayed directly. ACCase activity (B. J. Nikolau et al., Arch. Biochem. Biophys., 211, 605-612 (1981)) was assayed at 30° C. in a 0.2 ml volume which contained 1 mM ATP, 3 mM acetyl coenzyme A, 2.5 mM MgCl2, 50 mM KCl, 0.5 mM DTT, and 15 mM [^14C]NaHCO3 (0.17 mCi/mmol). Reactions were initiated by addition of acetyl coenzyme A and stopped by addition of 25 μl of 12 N HCl. Product formation was determined by the radioactivity found in an acid stable fraction by liquid scintillation spectrometry. Enzyme activity was linear for 15 minutes.
# Acetyl Coenzyme A Carboxylase (ACCase) was extracted from cell lines S-1, H-1 and H-2 and assayed as described in detail for maize cell line S-2, above.
# [4] = tested on: Heterozygous tolerant Inbred × H1 seedlings; experiment: Foliar herbicide application, lethal rate; format: in vivo, maize (Zea mays L.); settings: Heterozygous tolerant Inbred × H1, average of A188- and A619-derived F1 families
# Method: (§4) Foliar applications of the herbicides were made to greenhouse- or field-grown seedlings at the three- to five-leaf stage. Herbicides were applied in a spray volume of 187 l/ha that includes 2.3 l/ha crop oil concentrate to enhance uptake. Sethoxydim and haloxyfop were applied using commercial formulations (Poast from BASF Corp and Verdict from Dow Elanco, respectively). Visual observations were recorded 14-21 days after herbicide treatments.
# (§5) For each mutant, two homozygous tolerant R4 families were derived from two different regenerated plants and two heterozygous F1 families were obtained from crosses of R3 homozygous tolerant lines with the susceptible inbreds A188 and A619. Sethoxydim and haloxyfop each were applied at rates ranging from 0.0034 to 7.0 kg/ha. For each genotype a five-rate doubling series was used to determine herbicide lethality. Because of the large differences between wildtype and mutants in herbicide susceptibility, the ranges of herbicide application rates were varied. Two five plant/pot replicates of each family were evaluated for each rate. Herbicide injury symptoms were scored visually 21 days after herbicide treatment. The lethal rate was considered to be the lowest application rate resulting in death of all seedlings in the four replications of each homozygous tolerant genotype or in the eight replications of the heterozygous combinations.
# [5] = tested on: Heterozygous tolerant Inbred × H2 seedlings; experiment: Foliar herbicide application, lethal rate; format: in vivo, maize (Zea mays L.); settings: Heterozygous tolerant Inbred × H2, average of A188- and A619-derived F1 families
# Method: as §4, §5
# [6] = tested on: Heterozygous tolerant Inbred × S2 seedlings; experiment: Foliar herbicide application, lethal rate; format: in vivo, maize (Zea mays L.); settings: Heterozygous tolerant Inbred × S2, average of A188- and A619-derived F1 families
# Method: as §4, §5
# [7] = tested on: Heterozygous tolerant Inbred × S3 seedlings; experiment: Foliar herbicide application, lethal rate; format: in vivo, maize (Zea mays L.); settings: Heterozygous tolerant Inbred × S3, average of A188- and A619-derived F1 families
# Method: as §4, §5
# [8] = tested on: Homozygous tolerant H1 seedlings; experiment: Foliar herbicide application, lethal rate; format: in vivo, maize (Zea mays L.); settings: Homozygous tolerant H1, average of two families; scored 21 days after treatment
# Method: as §4, §5
# [9] = tested on: Homozygous tolerant H2 seedlings; experiment: Foliar herbicide application, lethal rate; format: in vivo, maize (Zea mays L.); settings: for Fold increase in tolerance compared to the wildtype: H2 seedlings; for Lethal rates: Homozygous tolerant H2, average of two families, scored 21 days after treatment
# Method: as §4, §5
# [10] = tested on: Homozygous tolerant S2 seedlings; experiment: Foliar herbicide application, lethal rate; format: in vivo, maize (Zea mays L.); settings: for Lethal rates: Homozygous tolerant S2, average of two families, scored 21 days after treatment
# Method: as §4, §5
# [11] = tested on: Homozygous tolerant S3 seedlings; experiment: Foliar herbicide application, lethal rate; format: in vivo, maize (Zea mays L.); settings: for Lethal rates: Homozygous tolerant S3, average of two families, scored 21 days after treatment
# Method: as §4, §5
# [12] = tested on: Wildtype (A188 and A619) seedlings; experiment: Foliar herbicide application, lethal rate; format: in vivo, maize (Zea mays L.); settings: average response of A188 and A619, scored 21 days after treatment
# Method: as §4, §5
# [13] = tested on: inbred wildtype control plants; experiment: Allelism testcross experiments, susceptible controls; format: in vivo, maize (Zea mays L.)
# Method: as §4
# All F1 combinations (no reciprocals) between S1, S2, S3, H1 and H2 homozygotes were made, and these F1s were test crossed to susceptible inbred lines. The testcross progeny were grown in the greenhouse and treated with the herbicides. In Experiment 1, progeny from testcrosses with each of the ten F1 combinations were treated with 0.05 kg/ha sethoxydim for combinations involving only S lines or with 0.009 kg/ha haloxyfop for combinations involving either of the H lines. In Experiment 2, a selected subset of the F1 combinations was tested that used testcross families that were separately derived from those used in Experiment 1. Testcross progeny of S lines were treated with 0.03 kg/ha sethoxydim, and H1 and H2 progeny were treated with 0.009 kg/ha haloxyfop. In each experiment, known susceptible and heterozygous plants were included as controls.
# [14] = tested on: acetyl-coenzyme A carboxylase (ACCase) (EC 6.4.1.2) in maize chloroplasts; experiment: Acetyl-Coenzyme A Carboxylase (ACCase) activity of maize chloroplasts; format: biochemical
# Method: as §3
SMILES,Fold increase in herbicide concentration that results in a 50% reduction in growth vs unselected control cell line [1] [fold],Fold increase in herbicide concentration that results in a 50% reduction in growth vs unselected control cell line [2] [fold],Fold increase in herbicide concentration that inhibits ACCase activity by 50% vs unselected parent cell line [3] [fold],Lethal rates [4] [kg/ha],Lethal rates [5] [kg/ha],Lethal rates [6],Lethal rates [7],Lethal rates [8] [kg/ha],Fold increase in tolerance compared to the wildtype [9],Lethal rates [9] [kg/ha],Lethal rates [10] [kg/ha],Lethal rates [11] [kg/ha],Lethal rates [12] [kg/ha],Effect on ACCase in maize chloroplasts [14],also measured
"CC(Oc1ccc(Oc2ncc(C(F)(F)F)cc2Cl)cc1)C(=O)O (stereo not shown) [Haloxyfop, 2-[4-[[3-chloro-5-(trifluoromethyl)-2-pyridinyl]oxy]phenoxy]-propanoic acid]",61,4,7,0.11,0.11,0.11 kg/ha,0.11 kg/ha,0.11,about 16 fold,0.22,0.22,0.22,0.014,inhibit,"Fold increase in herbicide concentration that results in a 50% reduction in growth vs unselected control cell line ([1]; listed as haloxyfop): ~60 fold; Fold increase in herbicide concentration that results in a 50% reduction in growth vs unselected control cell line ([2]; listed as haloxyfop): four-fold increase; Fold increase in herbicide concentration that inhibits ACCase activity by 50% vs unselected parent cell line ([3]; listed as haloxyfop): more tolerant; Response of wildtype control plants ([13]; 0.009 kg/ha haloxyfop): killed most, but not all"
"CCCC(=NOCC)C1=C(O)CC(CC(C)SCC)CC1=O (stereo not shown) [Sethoxydim, 2-[1-(ethoxyimino)-butyl]-5-[2-(ethylthio)propyl]-3-hydroxy-2-cyclohexen-1-one]",0,0,0,0.055,0.22,≧1.8 kg/ha,≧1.8 kg/ha,0.055,about 16 fold,0.88,>7.0,>7.0,0.055,inhibit,"Fold increase in herbicide concentration that results in a 50% reduction in growth vs unselected control cell line ([1]; listed as sethoxydim): Neither haloxyfop selected line showed a significant degree of sethoxydim tolerance; Fold increase in herbicide concentration that results in a 50% reduction in growth vs unselected control cell line ([2]; listed as sethoxydim): Neither haloxyfop selected line showed a significant degree of sethoxydim tolerance; Fold increase over the lethal rate for wildtype plants ([10]; homozygous S2 seedlings, not killed at 7 kg/ha): ≥ 127 fold; Fold increase over the lethal rate for wildtype plants ([11]; homozygous S3 seedlings, not killed at 7 kg/ha): ≥ 127 fold; Response of inbred wildtype control plants ([13]; 0.05 kg/ha (Experiment 1) or 0.03 kg/ha (Experiment 2) sethoxydim): all inbred wildtype plants died"
